Columns and labels:
[1] = tested on: lung cancer cell line (H1975); assay: Xenograft tumor volume in nude mice; assay type: in vivo; conditions: LiCl in the presence of Taxol treatment, short time after initiation of co-therapy
Description: FIG. 4B: tumor volume effect.
One or more murine models as described in Richmond, et al., Mouse xenograft models vs GEM models for human cancer therapeutics, Dis Model Mech. 2008 September-October; 1(2-3): 78-82, are prepared. As explained by Richmond, et al., “[t]hese models are used to investigate the factors involved in malignant transformation, invasion and metastasis, as well as to examine response to therapy. One of the most widely used models is the human tumor xenograft. […] For example, the xenograft will be readily accepted by athymic nude mice, severely compromised immunodeficient (SCID) mice, or other immunocompromised mice (Morton and Houghton, 2007). Depending upon the number of cells injected, or the size of the tumor transplanted, the tumor will develop over 1-8 weeks (or in some instances 1-4 months, or longer), and the response to appropriate therapeutic regimes can be studied in vivo.”
Pursuant to the above protocol, a lung cancer cell line (H1975) was injected into nude mice; after two weeks tumors were large enough to measure. Exemplary dosages for use in the above murine models include 25 mg/kg taxol injected 1 time per week (2×), lithium (12.8 mg/kg) injected 1 hour prior to paclitaxel injection. Protection of NCS-1 levels and intracellular Ca^2+ signals in cells is evaluated using techniques as described in Examples 1-3.

SHSY-5Y cells = assay: Intracellular Ca2+ signal in stimulated SHSY-5Y cells; assay type: cell-based
Description: FIG. 2A: Protection of the intracellular calcium signal by 1 uM AV411. […] After 200 seconds thapsigargin (TG, an inhibitor of the intracellular Ca^2+ pump) was added to indicate that the intracellular stores were filled and the cells were viable (second arrow). […] Each line represents the average of at least 45 cells (at least 15 cells measured in three separate experiments).
FIG. 2B: Protection of the intracellular calcium signal by 500 uM LiCl. Representative Ca^2+ responses of SHSY-5Y cells stimulated with 200 nM carbachol (at first arrow) to induce a transient release of Ca^2+ from intracellular stores. After 200 seconds thapsigargin (TG, an inhibitor of the intracellular Ca^2+ pump) was added to indicate that the intracellular stores were filled and the cells were viable (second arrow). […] Addition of 500 uM LiCl alone (pink trace)induced a small decrease in the Ca^2+ transient. […] Each line represents the average of at least 45 cells (at least 15 cells measured in three separate experiments.
FIG. 3B: Protection of the intracellular calcium signal by 5.0 mM LiCl. Representative Ca^2+ responses of SHSY-5Y cells treated with 800 ng/mL Taxol for 6 hours in the presence and absence of 5.0 mM. The experiment is the same as described for FIG. 2 except that 5 mM LiCl was used.
[…] After 200 seconds thapsigargin (TG, an inhibitor of the intracellular Ca^2+ pump) was added to indicate that the intracellular stores were filled and the cells were viable (second arrow). […] Each line represents the average of at least 45 cells (at least 15 cells measured in three separate experiments).
Intracellular Ca^2+ signals monitored in intact cells were also found to be reduced by treatment with Taxol for 6 hours (FIGS. 2B and 3B; compare control treatment (black trace) with Taxol treatment (blue trace) in both figures).

NCS-1 [2] = assay: NCS-1 levels by Western blot in Taxol-treated SHSY-5Y neuroblastoma cells; assay type: cell-based
Source text: (§1) Data shown are the average of three experiments.
as §1
More specifically, AV411 (ibudilast) is a drug used in several Asian countries for treatment of bronchial asthma, cerebrovascular disorders, post-stroke dizziness, and ocular allergies. In accordance with the Materials and Methods section of PNAS, Jun.
as §1

[3] = target: NCS-1 / inositol 1,4,5 trisphosphate receptor (InsP3R) (Homo sapiens, UniProt P62166); assay: NCS-1 binding to the InsP3R
Chain of NCS-1 / inositol 1,4,5 trisphosphate receptor (InsP3R) (P62166 2-190 limits assumed, species assumed): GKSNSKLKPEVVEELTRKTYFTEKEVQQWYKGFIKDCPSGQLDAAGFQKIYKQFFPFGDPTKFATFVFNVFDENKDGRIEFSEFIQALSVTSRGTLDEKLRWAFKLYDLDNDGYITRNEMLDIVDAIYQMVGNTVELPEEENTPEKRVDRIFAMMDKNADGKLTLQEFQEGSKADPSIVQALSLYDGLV
Source text: Based upon our observations regarding the activity of lithium carbonate, valproic acid, and chlorpromazine, we believe that there are additional drugs in these classes that will have the desired effect of preventing chemotherapy-induced polyneuropathy such as, but not limited to, […].

mice [4] = assay: Paclitaxel-induced myelin damage in mice; assay type: in vivo; conditions: paclitaxel-treated mice without Li-cotherapy
NCS-1 [5] = assay: NCS-1 levels in peripheral nerve and brain after low dose paclitaxel; assay type: in vivo, mice
Source text: FIG. 12: Low dose paclitaxel decreases NCS-1 levels in peripheral nerve, but not brain NCS-1 expression is maintained with lithium.

calpain = assay: Calpain activity after low dose paclitaxel; assay type: in vivo, mice
Source text: FIG. 3: Low dose paclitaxel increases calpain activity. Lithium treatment prevents activation of calpain.

mice [6] = assay: Echocardiograms of mice injected with taxol; assay type: in vivo
Source text: FIG. 5B: The bottom three panels of the figure attached, is from echocardiograms done on mice injected with taxol. These are the same mice for which the xenograph study was done (shown at the top of the figure). […] These are both measurements of contractility. […] Heart rate was not altered.
Taxol causes cardiac arrhythmias. […] The recent data shown in the bottom three panels of the FIG. 5B, is information compiled from echocardiograms done on mice injected with taxol. These are the same mice upon which the xenograph study was done (shown at the top of the figure). […] These are both measurements of contractility, which was reversed by lithium pre-treatment. […] Heart rate was not altered. The cardiologist who performed the experiment at the request of the inventor(s) was quite impressed and is considering studies in human patients. There are studies in the literature showing that chemotherapy induced changes acutely in contractility can develop into long term heart rhythm problems.

NCS-1 [7] = target: NCS-1 (Homo sapiens, UniProt P62166); assay: Tryptophan fluorescence binding to NCS-1
Chain of NCS-1 (Homo sapiens, UniProt P62166) (P62166 whole entry, species assumed): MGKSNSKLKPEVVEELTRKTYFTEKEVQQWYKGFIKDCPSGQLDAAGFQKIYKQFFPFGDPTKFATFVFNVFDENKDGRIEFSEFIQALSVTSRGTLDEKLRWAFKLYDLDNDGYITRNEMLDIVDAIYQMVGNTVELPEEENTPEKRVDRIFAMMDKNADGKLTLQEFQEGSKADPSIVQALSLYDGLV

calcium release = assay: Calcium release after low dose paclitaxel; assay type: in vivo, mice; conditions: low doses of paclitaxel
Source text: FIG. 11: Low dose paclitaxel decreases calcium release Lithium treatment prevents loss of calcium release.

microtubule assembly = assay: Microtubule assembly; assay type: biochemical
Description: FIG. 5: Paclitaxel speeds up microtubule assembly.
The relative effects of paclitaxel-LiCl and paclitaxel-AV411 co-administration on microtubule assembly were also determined.

[8] = tested on: calcium signaling in cells; assay: Protection of calcium signaling by combination treatment / calpastatin expression; assay type: cell-based; conditions: combination treatment with Li and calpastatin (expression of calpastatin in cells)
Source text: FIG. 7: Combination treatment protects calcium signaling.
FIG. 8: Expression of calpastatin, a natural calpain antagonist, protects calcium signaling in cells.

[Cl-].[Li+] [LiCl, lithium chloride] was tested, and the Tumor volume [1] was “statistically significant decrease in tumor volume”, the “Intracellular Ca2+ signals” value (SHSY-5Y cells; 500 uM or 5.0 mM LiCl in the presence of Taxol) was “signals similar to that of non-treated cells” and the “Intracellular Ca2+ signals” value (SHSY-5Y cells; LiCl alone) was “decreased the intracellular signals, but not to the extent seen with Taxol treatment”. For the same molecule, the “NCS-1 levels (Western blot)” value (NCS-1 [2]; 500 uM and 5.0 mM LiCl in the presence of Taxol, 6 hours, SHSY-5Y) was “protected from the Taxol-induced degradation of NCS-1” and the “NCS-1 levels (Western blot)” value (NCS-1 [2]; LiCl alone (500 uM, 5.0 mM)) was “did not reduce NCS-1 levels”.

CN(C)CCCN1c2ccccc2Sc2ccc(Cl)cc21 [chlorpromazine] was tested, and the “NCS-1 binding to InsP3R” value [3] was “prevent neuronal calcium sensor 1 (NCS-1) from binding to the inositol 1,4,5 trisphosphate receptor (InsP3R)”.

O=C([O-])[O-].[Li+].[Li+] [lithium carbonate] was tested, and the “NCS-1 binding to InsP3R” value [3] was “prevent neuronal calcium sensor 1 (NCS-1) from binding to the inositol 1,4,5 trisphosphate receptor (InsP3R)”.

With CC(=O)O[C@H]1C(=O)[C@@]2(C)[C@H]([C@H](OC(=O)c3ccccc3)[C@]3(O)C[C@H](OC(=O)[C@H](O)[C@@H](NC(=O)c4ccccc4)c4ccccc4)C(C)=C1C3(C)C)[C@]1(OC(C)=O)CO[C@@H]1C[C@@H]2O [paclitaxel] the Myelin damage (mice [4]) was “evident myelin damage enlarged structures”, the “NCS-1 levels in peripheral nerve and brain” value (NCS-1 [5]) was “decreased NCS-1 levels in peripheral nerve, but not in the brain” and the Calpain activity (calpain) was “increased calpain activity”. For the same molecule, the “End diastolic diameter and fractional shortening (contractility)” value (mice [6]; 1 hour after taxol injection) was “end diastolic diameter and fractional shortening were altered”, the Heart rate (mice [6]; after taxol injection) was “not altered” and the “Binding to NCS-1” value (NCS-1 [7]) was “binds to NCS-1”. For the same molecule, the Calcium release (calcium release) was “decreased calcium release”, the Microtubule assembly (microtubule assembly) was “accelerates microtubule assembly” and the “Ca2+ response” value (SHSY-5Y cells; Taxol 800 ng/mL for 6 hours, stimulated with 1 uM ATP) was “response lower in amplitude than non-treated cells”. For the same molecule, the “Intracellular Ca2+ signals” value (SHSY-5Y cells; Taxol for 6 hours, 200 nM carbachol) was “reduced”, the “NCS-1 levels (Western blot)” value (NCS-1 [2]; paclitaxel (Taxol) alone, 800 ng/mL, 6 hours) was “decreased NCS-1 levels” and the “NCS-1 levels (Western blot)” value (NCS-1 [2]; paclitaxel (Taxol) alone, 800 ng/mL, 6 hours, listed as Taxol) was “NCS-1 degradation”.

In the case of CCCC(CCC)C(=O)O [valproic acid], the “NCS-1 binding to InsP3R” value [3] is reported as “prevent neuronal calcium sensor 1 (NCS-1) from binding to the inositol 1,4,5 trisphosphate receptor (InsP3R)”.

B1: calpastatin: a natural calpain antagonist, expressed in cells (protein, UniProt P20810 1-708, looked up)
Calpastatin: MNPTETKAIPVSQQMEGPHLPNKKKHKKQAVKTEPEKKSQSTKLSVVHEKKSQEGKPKEHTEPKSLPKQASDTGSNDAHNKKAVSRSAEQQPSEKSTEPKTKPQDMISAGGESVAGITAISGKPGDKKKEKKSLTPAVPVESKPDKPSGKSGMDAALDDLIDTLGGPEETEEENTTYTGPEVSDPMSSTYIEELGKREVTIPPKYRELLAKKEGITGPPADSSKPIGPDDAIDALSSDFTCGSPTAAGKKTEKEESTEVLKAQSAGTVRSAAPPQEKKRKVEKDTMSDQALEALSASLGTRQAEPELDLRSIKEVDEAKAKEEKLEKCGEDDETIPSEYRLKPATDKDGKPLLPEPEEKPKPRSESELIDELSEDFDRSECKEKPSKPTEKTEESKAAAPAPVSEAVCRTSMCSIQSAPPEPATLKGTVPDDAVEALADSLGKKEADPEDGKPVMDKVKEKAKEEDREKLGEKEETIPPDYRLEEVKDKDGKPLLPKESKEQLPPMSEDFLLDALSEDFSGPQNASSLKFEDAKLAAAISEVVSQTPASTTQAGAPPRDTSQSDKDLDDALDKLSDSLGQRQPDPDENKPMEDKVKEKAKAEHRDKLGERDDTIPPEYRHLLDDNGQDKPVKPPTKKSEDSKKPADDQDPIDALSGDLDSCPSTTETSQNTAKDKCKKAASSSKAPKNGGKAKDSAKTTEETSKPKDD
In the case of B1, the Calcium signaling [8] is reported as “protected calcium signaling”.
